Read-outs that look alike come from different tables or passages of the source.
Legend:
[1] = In vitro stability in mouse plasma/PBS (1:2 v/v) at 37 °C; format: in vitro ADME; conditions: read-out: % intact peptide in mouse plasma after the given incubation time
Method: (§1) The metabolic stabilities of 11–14, 16 and 18–21 (cf. Table 2) were investigated in human blood plasma/PBS (136.9 mM NaCl, 2.68 mM KCl, 5.62 mM Na2HPO4, 1.09 mM NaH2PO4 and 1.47 mM KH2PO4) pH 7.4 (1:2, v/v) according to a described procedure[13] with the following modifications: 5 mM stock solutions in EtOH/0.04% aq TFA (30:70 v/v) (11–13), MeCN/0.025% aq TFA (30:70 v/v) (14), MeCN/0.04% aq TFA (30:70 v/v) (16, 19 and 21) or EtOH/H2O (40:60 v/v) (18, 20) were used for the addition of the peptides to plasma/PBS (1:2 v/v). As the RP-HPLC purity of 1-Methyl-D-Trp (internal standard, IS) was < 95% (data not shown), the compound was purified by preparative HPLC to give a purity of > 99%. The concentration of the peptides in plasma/PBS (1:2 v/v) was 80 and 4 µM (recovery determination) or 100 µM (stability tests). The obtained recoveries and the recovery ratios (peptide/internal standard) are summarized in Supplementary Table S1. Data analysis was based on UV detection at 220 nm. Additionally, the stability of compound 21 was investigated in mouse plasma/PBS (1:2 v/v) using the same procedure as described above for human plasma. Mouse plasma was obtained by the collection of blood from anaesthetized mice via cardiac puncture using a syringe that was rinsed with sodium heparin (25,000 I.E., Ratiopharm, Ulm, Germany). The heparinized blood was transferred into a 2-mL reaction vessel, followed by centrifugation (1200 g, 4 °C, 10 min). The supernatants were pooled, centrifuged again (1200 g, 4 °C, 10 min), the plasma was aliquoted and stored at − 80 °C. The concentration of 21 in plasma/PBS (1:2 v/v) was 80 and 4 μM (recovery determination) or 100 μM (stability tests). The obtained recoveries and the recovery ratios (21/IS) are summarized in Supplementary Table S2. Data analysis was based on UV detection at 220 nm.

[2] = In vitro stability in human plasma/PBS (1:2 v/v) at 37 °C; format: in vitro ADME; conditions: human blood plasma/PBS (1:2 v/v), read-out: % intact peptide in human plasma after the given incubation time; for remaining at 1 h, 100 µM: pH 7.4, 1 h; for remaining at 6 h, 100 µM: pH 7.4, 6 h; for remaining at 24 h, 100 µM: pH 7.4, 24 h; for remaining at 48 h, 100 µM: pH 7.4, 48 h; for remaining at 10 min, 100 µM: pH 7.4, 10 min
Method: as §1

[3] = molecular target: T1, hNTS1R (Homo sapiens, UniProt P30989); assay: Radioligand competition binding with [^3H]UR-MK300 at intact HT-29 cells; conditions: [^3H]UR-MK300 (Kd = […], c = 1 nM), 23 °C
T1 construct: at hNTS1R expressing intact human HT-29 colon carcinoma cells; endogenous in cells; host or cells: HT-29 human colon carcinoma cells (intact)
Method: Unspecific binding was subtracted from total binding to obtain specific binding. Data analysis was performed by plotting % specifically bound radioligand (100% = specifically bound radioligand in the absence of competitor) over log(concentration of competitor) followed by a four-parameter logistic fit (SigmaPlot 12.5, Systat Software). […] The Ki values from individual experiments were transformed to pKi values, followed by the calculation of mean pKi values ± SEM.

[4] = read-out: pKi ± SEM (converted)

T1 sequence (P30989 whole entry): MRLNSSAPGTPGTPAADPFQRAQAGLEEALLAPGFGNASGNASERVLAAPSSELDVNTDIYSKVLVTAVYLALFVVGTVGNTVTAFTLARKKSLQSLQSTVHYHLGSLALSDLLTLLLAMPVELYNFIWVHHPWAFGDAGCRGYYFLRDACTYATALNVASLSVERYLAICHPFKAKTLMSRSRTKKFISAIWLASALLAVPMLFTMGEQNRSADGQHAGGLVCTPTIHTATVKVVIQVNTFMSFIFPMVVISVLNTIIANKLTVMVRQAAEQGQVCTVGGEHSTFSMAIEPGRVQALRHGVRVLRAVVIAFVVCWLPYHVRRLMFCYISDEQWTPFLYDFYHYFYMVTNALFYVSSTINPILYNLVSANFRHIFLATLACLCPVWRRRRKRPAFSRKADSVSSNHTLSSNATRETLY

Structure (SMILES)	remaining at 10 min, 100 µM ([1]; pH 7.4, 10 min) [%]	remaining at 1 h, 100 µM ([1]; pH 7.4, 1 h) [%]	remaining at 2 h, 100 µM ([1]; pH 7.4, 2 h) [%]	remaining at 6 h, 100 µM ([1]; pH 7.4, 6 h) [%]	remaining at 24 h, 100 µM ([1]; pH 7.4, 24 h) [%]	remaining at 48 h, 100 µM ([1]; pH 7.4, 48 h) [%]	remaining at 1 h, 100 µM [2] [%]	remaining at 6 h, 100 µM [2] [%]	remaining at 24 h, 100 µM [2] [%]	remaining at 48 h, 100 µM [2] [%]	Ki ([3]; mean)	Ki ([3]; mean, read-out: Ki (converted)) [nM]	Ki [3, 4] [nM]	remaining at 10 min, 100 µM [2] [%]	remaining at 25 min, 100 µM ([2]; pH 7.4, 25 min) [%]	remaining at 2 h, 100 µM ([2]; pH 7.4, 2 h) [%]
CN[C@@H](CCCNC(=N)NC(=O)NCCCCNC(=O)CCc1cn([C@@H]2O[C@H](CF)[C@@H](O)[C@H](O)[C@H]2O)nn1)C(=O)N[C@@H](CCCNC(=N)N)C(=O)N1CCC[C@H]1C(=O)N[C@@H](Cc1ccc(O)cc1)C(=O)N[C@H](C(=O)N[C@@H](CC(C)C)C(=O)O)C(C)(C)C [Compound 21, N^α-methyl-(N^ω-{N-[4-(3-{1-[6-deoxy-6-fluoro-β-D-glucopyranosyl]-1H-1,2,3-triazol-4-yl}propanoyl)aminobutyl]aminocarbonyl})Arg-Arg-Pro-Tyr-2-tert-butyl-Gly-Leu-OH tris(hydrotrifluoroacetate)]	> 99	> 99	> 99	> 99	> 99	> 99	> 99	> 99	> 99	99 ± 1	one-digit nanomolar range	4.3	4.07	–	–	–
CC(C)C[C@H](NC(=O)[C@@H](NC(=O)[C@H](Cc1ccc(O)cc1)NC(=O)[C@@H]1CCCN1C(=O)[C@H](CCCNC(=N)NC(=O)NCCCCc1cn([C@@H]2O[C@H](CF)[C@@H](O)[C@H](O)[C@H]2O)nn1)NC(=O)[C@@H](N)CCCNC(=N)N)C(C)(C)C)C(=O)O [Compound 12, H-Arg-{N^ω-[N-(4-{1-[6-deoxy-6-fluoro-β-D-glucopyranosyl]-1H-1,2,3-triazol-4-yl}butyl)aminocarbonyl]}Arg-Pro-Tyr-2-tert-butyl-Gly-Leu-OH tris(hydrotrifluoroacetate)]	–	–	–	–	–	–	< 1	–	–	–	–	5.8	5.5	86 ± 1	28 ± 1	< 1
C#CCCC(=O)NCCCCNC(=O)NC(=N)NCCC[C@H](N)C(=O)N[C@@H](CCCNC(=N)N)C(=O)N1CCC[C@H]1C(=O)N[C@@H](Cc1ccc(O)cc1)C(=O)N[C@H](C(=O)N[C@@H](CC(C)C)C(=O)O)C(C)(C)C [Compound 18, H-{N^ω-[N-(4-pent-4-ynoylaminobutyl)aminocarbonyl]}Arg-Arg-Pro-Tyr-2-tert-butyl-Gly-Leu-OH tris(hydrotrifluoroacetate)]	–	–	–	–	–	–	< 1	< 1	< 1	–	–	4.4	4.27	59 ± 1	–	–
C#CCCC(=O)NCCCCNC(=O)NC(=N)NCCC[C@H](NC)C(=O)N[C@@H](CCCNC(=N)N)C(=O)N1CCC[C@H]1C(=O)N[C@@H](Cc1ccc(O)cc1)C(=O)N[C@H](C(=O)N[C@@H](CC(C)C)C(=O)O)C(C)(C)C [Compound 19, N^α-methyl-{N^ω-[N-(4-pent-4-ynoylaminobutyl)aminocarbonyl]}Arg-Arg-Pro-Tyr-2-tert-butyl-Gly-Leu-OH tris(hydrotrifluoroacetate)]	–	–	–	–	–	–	> 99	> 99	> 99	99 ± 1	–	7.7	–	–	–	–
CC(C)C[C@H](NC(=O)[C@@H](NC(=O)[C@H](Cc1ccc(O)cc1)NC(=O)[C@@H]1CCCN1C(=O)[C@H](CCCNC(=N)N)NC(=O)[C@@H](N)CCCNC(=N)NC(=O)NCCCCNC(=O)CCc1cn([C@@H]2O[C@H](CF)[C@@H](O)[C@H](O)[C@H]2O)nn1)C(C)(C)C)C(=O)O [Compound 20, H-(N^ω-{N-[4-(3-{1-[6-deoxy-6-fluoro-β-D-glucopyranosyl]-1H-1,2,3-triazol-4-yl}propanoyl)aminobutyl]aminocarbonyl})Arg-Arg-Pro-Tyr-2-tert-butyl-Gly-Leu-OH tris(hydrotrifluoroacetate)]	–	–	–	–	–	–	6.4 ± 0.1	–	< 1	–	–	2.5	–	78 ± 1	–	–

From paper PMC9440028, “Neurotensin analogs by fluoroglycosylation at N^ω-carbamoylated arginines for PET imaging of NTS1-positive tumors” (Scientific Reports, 2022)
